Holding throughout (assay type): biochemical
One assay has as its target PI3K-alpha (Homo sapiens, UniProt P42336). The assay is described as follows: PI3K-alpha fluorescence polarization assay. Particulars: read-out: PI3Kα Avg. IC50. On the technique in general: Fluorescence polarisation rises when a labelled molecule tumbles more slowly, as on binding a larger partner.
The target in the next assay is T1, human TOR (Homo sapiens, UniProt P42345).
T1 construct: FLAG
The assay is described as follows: mTOR enzyme assay (DELFIA, His6-S6K substrate). Particulars: read-out: mTOR Kinase Avg. IC50.

The target of another assay is PI3K-gamma (Homo sapiens, UniProt P48736). The assay is described as follows: PI3K-gamma fluorescence polarization assay. As to conditions: PI3Kγ Avg. IC50. A digest of the protocol: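 Enzyme 5 ng; substrate diC8-PI(4,5)P2 2.5 μM; ATP 25 μM; 5 mM HEPES pH 7, 2.5 mM MgCl2; DMSO ≤2%; 1 h, 25° C. Quench 10 mM EDTA. Detect with GRP1 PH domain 100 nM + TMR-IP4 probe 5 nM by polarization.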

The structures appear in SMILES notation.

By IC50 is commonly meant the concentration at which inhibition is half-maximal.

PI3K-gamma, sequence (P48736 whole entry, species assumed, the tested form may be a part): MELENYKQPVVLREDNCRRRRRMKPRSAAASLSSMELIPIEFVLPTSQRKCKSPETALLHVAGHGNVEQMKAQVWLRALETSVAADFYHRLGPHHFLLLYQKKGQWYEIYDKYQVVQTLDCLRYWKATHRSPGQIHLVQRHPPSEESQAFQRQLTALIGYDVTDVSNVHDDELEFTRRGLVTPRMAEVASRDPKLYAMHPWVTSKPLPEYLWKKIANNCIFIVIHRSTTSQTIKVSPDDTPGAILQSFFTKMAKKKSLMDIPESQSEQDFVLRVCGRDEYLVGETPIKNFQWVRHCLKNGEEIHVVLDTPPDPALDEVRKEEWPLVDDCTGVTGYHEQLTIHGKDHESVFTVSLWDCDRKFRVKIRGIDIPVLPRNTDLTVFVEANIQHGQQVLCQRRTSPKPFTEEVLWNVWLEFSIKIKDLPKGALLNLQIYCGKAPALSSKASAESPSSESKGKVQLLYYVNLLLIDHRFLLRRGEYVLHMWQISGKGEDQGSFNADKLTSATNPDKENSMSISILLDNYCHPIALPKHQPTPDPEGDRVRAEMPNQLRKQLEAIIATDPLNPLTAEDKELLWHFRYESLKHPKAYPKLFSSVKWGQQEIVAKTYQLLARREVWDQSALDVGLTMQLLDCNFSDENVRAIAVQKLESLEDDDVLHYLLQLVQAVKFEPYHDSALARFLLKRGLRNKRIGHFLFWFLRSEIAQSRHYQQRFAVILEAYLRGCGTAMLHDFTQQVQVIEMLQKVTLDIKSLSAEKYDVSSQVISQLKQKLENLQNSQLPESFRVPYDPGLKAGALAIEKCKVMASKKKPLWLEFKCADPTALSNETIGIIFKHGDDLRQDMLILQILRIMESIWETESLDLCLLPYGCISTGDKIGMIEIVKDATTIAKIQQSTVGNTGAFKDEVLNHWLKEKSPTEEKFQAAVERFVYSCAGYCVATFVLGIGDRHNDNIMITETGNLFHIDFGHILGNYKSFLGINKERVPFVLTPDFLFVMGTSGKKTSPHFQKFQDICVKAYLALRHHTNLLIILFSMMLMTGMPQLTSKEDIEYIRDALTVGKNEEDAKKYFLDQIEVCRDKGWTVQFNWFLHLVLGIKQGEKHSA
PI3K-alpha, sequence (P42336 whole entry, species assumed): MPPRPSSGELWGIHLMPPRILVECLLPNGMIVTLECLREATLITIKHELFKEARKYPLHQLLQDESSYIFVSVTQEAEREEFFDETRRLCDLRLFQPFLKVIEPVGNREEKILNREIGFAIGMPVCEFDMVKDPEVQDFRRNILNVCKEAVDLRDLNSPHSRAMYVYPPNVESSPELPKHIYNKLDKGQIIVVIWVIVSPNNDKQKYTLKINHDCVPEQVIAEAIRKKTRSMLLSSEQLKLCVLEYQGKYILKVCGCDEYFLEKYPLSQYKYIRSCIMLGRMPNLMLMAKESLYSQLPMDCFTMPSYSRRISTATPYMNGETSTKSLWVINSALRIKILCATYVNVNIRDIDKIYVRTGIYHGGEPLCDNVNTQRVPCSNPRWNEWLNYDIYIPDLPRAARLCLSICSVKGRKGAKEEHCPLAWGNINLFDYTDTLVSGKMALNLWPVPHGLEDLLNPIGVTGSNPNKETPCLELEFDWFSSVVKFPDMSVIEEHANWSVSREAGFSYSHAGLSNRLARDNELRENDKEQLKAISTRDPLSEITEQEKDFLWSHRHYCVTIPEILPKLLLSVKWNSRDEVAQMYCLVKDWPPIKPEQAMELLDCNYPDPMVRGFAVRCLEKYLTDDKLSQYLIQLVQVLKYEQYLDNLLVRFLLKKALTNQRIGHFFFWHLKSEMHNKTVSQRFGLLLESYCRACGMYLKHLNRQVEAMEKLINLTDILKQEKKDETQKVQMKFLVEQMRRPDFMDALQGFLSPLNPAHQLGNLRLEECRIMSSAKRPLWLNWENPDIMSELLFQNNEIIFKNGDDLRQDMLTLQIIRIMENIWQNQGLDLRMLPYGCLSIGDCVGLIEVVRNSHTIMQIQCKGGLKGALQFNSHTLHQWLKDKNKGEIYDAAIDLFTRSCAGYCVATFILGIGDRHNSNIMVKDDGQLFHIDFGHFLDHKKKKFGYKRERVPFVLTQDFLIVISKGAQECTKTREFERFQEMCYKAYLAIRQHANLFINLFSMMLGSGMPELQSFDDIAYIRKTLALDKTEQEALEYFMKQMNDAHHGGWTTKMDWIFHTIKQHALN
PI3K-alpha, sequence (P27986 whole entry partner, species assumed): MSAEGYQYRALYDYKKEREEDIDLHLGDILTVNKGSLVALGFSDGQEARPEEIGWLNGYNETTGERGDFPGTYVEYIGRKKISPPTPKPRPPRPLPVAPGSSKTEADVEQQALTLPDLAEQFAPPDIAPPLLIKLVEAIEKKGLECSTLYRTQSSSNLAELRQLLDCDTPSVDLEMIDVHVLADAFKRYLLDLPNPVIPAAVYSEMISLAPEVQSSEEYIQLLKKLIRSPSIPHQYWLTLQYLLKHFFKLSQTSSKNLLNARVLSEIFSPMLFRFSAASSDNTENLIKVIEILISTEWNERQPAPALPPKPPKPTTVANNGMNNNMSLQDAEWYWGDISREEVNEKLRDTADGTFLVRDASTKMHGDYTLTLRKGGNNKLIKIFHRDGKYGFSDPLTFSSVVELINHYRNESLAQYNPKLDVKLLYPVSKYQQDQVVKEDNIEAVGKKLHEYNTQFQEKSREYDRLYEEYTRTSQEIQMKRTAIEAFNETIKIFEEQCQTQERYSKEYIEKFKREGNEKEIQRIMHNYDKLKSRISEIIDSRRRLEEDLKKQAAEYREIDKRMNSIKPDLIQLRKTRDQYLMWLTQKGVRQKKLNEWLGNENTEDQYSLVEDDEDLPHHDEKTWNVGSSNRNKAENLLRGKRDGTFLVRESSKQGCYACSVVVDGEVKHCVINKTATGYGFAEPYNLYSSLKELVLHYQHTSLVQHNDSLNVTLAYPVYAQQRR

Consider `O=C1C(=Cc2c(-c3ccccc3)n(CCN3CCOCC3)c3ccccc23)Oc2cc(O)cc(O)c21` [Example 147, 4,6-dihydroxy-2-{[1-(2-morpholin-4-ylethyl)-2-phenyl-1H-indol-3-yl]methylene}-1-benzofuran-3(2H)-one], for which the half-maximal inhibitory concentration (IC50) worked out at 2450 nM at PI3K-alpha, 1080 nM at human TOR and 6000 nM against PI3K-gamma.
In the case of `Cn1c(-c2cccnc2)c(C=C2Oc3cc(O)cc(O)c3C2=O)c2ccccc21` [Example 189, 4,6-dihydroxy-2-[(1-methyl-2-pyridin-3-yl-1H-indol-3-yl)methylene]-1-benzofuran-3(2H)-one], the 50% inhibitory concentration (IC50) at PI3K-alpha amounted to 2710 nM; on human TOR, 140 nM; against PI3K-gamma it was 11000 nM.
For the molecule `Cn1cc(/C=C2\Oc3cc(O)ccc3C2=O)c2c(-c3ccccc3)cccc21` [Example 443, (2Z)-6-Hydroxy-2-((1-methyl-4-phenyl-1H-indol-3-yl)methylene)benzofuran-3(2H)-one], the IC50 at PI3K-alpha was above 5100 nM; on human TOR it was 1240 nM; against PI3K-gamma, above 5100 nM.
`COc1ccc2c(c1)c(/C=C1\Oc3cc(O)ccc3C1=O)c(C)n2CCN1CCCC1C` (stereo not drawn) [Example 453, (2Z)-6-Hydroxy-2-({5-methoxy-2-methyl-1-[2-(2-methylpyrrolidin-1-yl)ethyl]-1H-indol-3-yl}methylene)-1-benzofuran-3(2H)-one]: the IC50 at PI3K-alpha is 49.5 nM; at human TOR, 2200 nM; against PI3K-gamma it was 550 nM.
The matching figures for `Cc1c(C=C2Oc3cc(O)cc(O)c3C2=O)c2cc(Cl)ccc2n1CCCC#N` [Example 238, 4-{5-chloro-3-[(4,6-dihydroxy-3-oxo-1-benzofuran-2(3H)-ylidene)methyl]-2-methyl-1H-indol-1-yl}butanenitrile]: 288 nM, 360 nM and 2820 nM.
The matching figures for `CCn1c(C)c(/C=C2\Oc3ccc(NC(=O)Nc4ccc(CCN(C)C)cc4)cc3C2=O)c2cc(OC)ccc21` [Compound 670, 1-{4-[2-(dimethylamino)ethyl]phenyl}-3-{(2Z)-2-[(1-ethyl-5-methoxy-2-methyl-1H-indol-3-yl)methylidene]-3-oxo-2,3-dihydro-1-benzofuran-5-yl}urea]: 3.5 nM, 133 nM and 20.3 nM.
The matching figures for `COc1ccc2c(c1)c(/C=C1\Oc3cc(O)c(Cl)cc3C1=O)c(C)n2CCCN(C)C` [Example 448, (2Z)-5-Chloro-2-({1-[3-(dimethylamino)propyl]-5-methoxy-2-methyl-1H-indol-3-yl}methylene)-6-hydroxy-1-benzofuran-3(2H)-one]: 142 nM, above 20000 nM and 5130 nM.
On to `COc1ccc2c(c1)c(/C=C1\Oc3cc(O)cc(Br)c3C1=O)c(C)n2CCN1CCN(C)CC1` [Example 429, (2Z)-4-Bromo-6-hydroxy-2-({5-methoxy-2-methyl-1-[2-(4-methylpiperazin-1-yl)ethyl]-1H-indol-3-yl}methylene)-1-benzofuran-3(2H)-one], for which the figures for the 50% inhibitory concentration (IC50) at PI3K-alpha, on human TOR and at PI3K-gamma were 67.5 nM, 500 nM and 3130 nM, respectively.
The matching figures for `O=C1C(=Cc2c[nH]c3cccc(Cl)c23)Oc2cc(O)cc(O)c21` [Example 171, 2-[(4-chloro-1H-indol-3-yl)methylene]-4,6-dihydroxy-1-benzofuran-3(2H)-one]: 2030 nM, above 20000 nM and above 10000 nM.
The matching figures for `COc1cc(F)c2[nH]c(-c3c(C)nn(C)c3C)c(/C=C3\Oc4ccc(NC(=O)Nc5ccc(C(=O)N6CCOCC6)cc5)cc4C3=O)c2c1` [Compound 731, 1-[(2Z)-2-{[7-fluoro-5-methoxy-2-(1,3,5-trimethyl-1H-pyrazol-4-yl)-1H-indol-3-yl]methylidene}-3-oxo-2,3-dihydro-1-benzofuran-5-yl]-3-[4-(morpholin-4-ylcarbonyl)phenyl]urea]: 0.55 nM, 3 nM and 1.5 nM.
The matching figures for `CNC(=O)Nc1ccc2c(c1)C(=O)/C(=C/c1c(N3CCN(C)CC3)n(CCN3CCN(C)CC3)c3ccc(OC)cc13)O2` [Compound 636, 1-[(2Z)-2-({5-methoxy-2-(4-methylpiperazin-1-yl)-1-[2-(4-methylpiperazin-1-yl)ethyl]-1H-indol-3-yl}methylene)-3-oxo-2,3-dihydro-1-benzofuran-5-yl]-3-methylurea]: 4 nM, 165 nM and 1010 nM.
Regarding `CNC(=O)Nc1ccc2c(c1)C(=O)/C(=C/c1c(-c3cnn(C)c3)[nH]c3c(F)cc(OC)cc13)O2` [Compound 718, 1-[(2Z)-2-{[7-fluoro-5-methoxy-2-(1-methyl-1H-pyrazol-4-yl)-1H-indol-3-yl]methylidene}-3-oxo-2,3-dihydro-1-benzofuran-5-yl]-3-methylurea], the IC50 on PI3K-alpha was determined as 2.75 nM; on human TOR it was 2 nM; on PI3K-gamma it was 9.5 nM.
The matching figures for `COc1ccc2c(c1)c(/C=C1\Oc3c(ccc(O)c3F)C1=O)c(C)n2CCCN(C)C` [Example 449, (2Z)-2-({1-[3-(Dimethylamino)propyl]-5-methoxy-2-methyl-1H-indol-3-yl}methylene)-7-fluoro-6-hydroxy-1-benzofuran-3(2H)-one]: 166 nM, above 20000 nM and above 11000 nM.
Turning to `COc1ccc2[nH]c(-c3c(C)nn(C)c3C)c(/C=C3\Oc4ccc(NC(=O)Nc5ccc(C(=O)N6CCS(=O)(=O)CC6)cc5)cc4C3=O)c2c1` [Compound 720, 1-{4-[(1,1-dioxidothiomorpholin-4-yl)carbonyl]phenyl}-3-[(2Z)-2-{[5-methoxy-2-(1,3,5-trimethyl-1H-pyrazol-4-yl)-1H-indol-3-yl]methylidene}-3-oxo-2,3-dihydro-1-benzofuran-5-yl]urea], the IC50 at PI3K-alpha came out at 0.4 nM; at human TOR, 2 nM; on PI3K-gamma it was 1.75 nM.
The matching figures for `N#CCCCn1cc(C=C2Oc3cc(O)cc(O)c3C2=O)c2c(O)cccc21` [Example 257, 4-{3-[(4,6-dihydroxy-3-oxo-1-benzofuran-2(3H)-ylidene)methyl]-4-hydroxy-1H-indol-1-yl}butanenitrile]: 180 nM, 12000 nM and 2240 nM.
The matching figures for `O=C1C(=Cc2c[nH]c3cc(Br)ccc23)Oc2cc(O)cc(O)c21` [Example 143, 2-[(6-bromo-1H-indol-3-yl)methylene]-4,6-dihydroxy-1-benzofuran-3(2H)-one]: 1850 nM, 4450 nM and 6660 nM.
The matching figures for `CNC(=O)Nc1ccc2c(c1)C(=O)/C(=C/c1c(-c3cnn(CC(C)C)c3)[nH]c3c(F)cc(OC)cc13)O2` [Compound 717, 1-[(2Z)-2-({7-fluoro-5-methoxy-2-[1-(2-methylpropyl)-1H-pyrazol-4-yl]-1H-indol-3-yl}methylidene)-3-oxo-2,3-dihydro-1-benzofuran-5-yl]-3-methylurea]: 2.65 nM, 7 nM and 8 nM.
As for `Cn1c(-c2cccc(F)c2)c(C=C2Oc3cc(O)cc(O)c3C2=O)c2ccccc21` [Example 197, 2-{[2-(3-fluorophenyl)-1-methyl-1H-indol-3-yl]methylene}-4,6-dihydroxy-1-benzofuran-3(2H)-one], the 50% inhibitory concentration (IC50) is 1100 nM on PI3K-alpha, 280 nM on human TOR and 9160 nM on PI3K-gamma.
The matching figures for `COc1ccc2[nH]cc(C=C3Oc4cccc(O)c4C3=O)c2c1` [Example 78, 4-hydroxy-2-[(5-methoxy-1H-indol-3-yl)methylene]-1-benzofuran-3(2H)-one]: 516 nM, 2900 nM and 1200 nM.
The matching figures for `COc1ccc2[nH]c(-c3c(C)nn(C)c3C)c(/C=C3\Oc4ccc(NC(=O)Nc5ccc(C(=O)N6CCN(C)C(C)C6)cc5)cc4C3=O)c2c1` (stereo not drawn) [Compound 703, 1-{4-[(3,4-dimethylpiperazin-1-yl)carbonyl]phenyl}-3-[(2Z)-2-{[5-methoxy-2-(1,3,5-trimethyl-1H-pyrazol-4-yl)-1H-indol-3-yl]methylidene}-3-oxo-2,3-dihydro-1-benzofuran-5-yl]urea]: 0.3 nM, 3 nM and 2.5 nM.
For the molecule `CCn1c(C)c(/C=C2\Oc3ccc(NC(=O)Nc4ccc(C(=O)NCCNC)cc4)cc3C2=O)c2cc(OC)ccc21` [Compound 659, 4-[({(2Z)-2-[(1-ethyl-5-methoxy-2-methyl-1H-indol-3-yl)methylene]-3-oxo-2,3-dihydro-1-benzofuran-5-yl}carbamoyl)amino]-N-[2-(methylamino)ethyl]benzamide], the IC50 at PI3K-alpha amounted to 0.3 nM; at human TOR, 15 nM; on PI3K-gamma it was 2.2 nM.
The matching figures for `CNC(=O)Nc1ccc2c(c1)C(=O)/C(=C/c1c(-c3c(C)nn(C)c3C)[nH]c3c(OC)c(F)c(OC)cc13)O2` [Compound 712, 1-[(2Z)-2-{[6-fluoro-5,7-dimethoxy-2-(1,3,5-trimethyl-1H-pyrazol-4-yl)-1H-indol-3-yl]methylidene}-3-oxo-2,3-dihydro-1-benzofuran-5-yl]-3-methylurea]: 23 nM, 240 nM and 246 nM.
The matching figures for `COc1ccc(-c2cccc3[nH]cc(/C=C4\Oc5cc(O)cc(O)c5C4=O)c23)cc1` [Example 371, (2Z)-4,6-dihydroxy-2-{[4-(4-methoxyphenyl)-1H-indol-3-yl]methylene}benzofuran-3(2H)-one]: 1010 nM, 730 nM and 763 nM.
